Legend:
ob/ob and db/db mice = conditions: following 8 weeks of administration; cited from earlier work
[1] = biological target: T1, recombinant human AMPK complex 1 (containing α1β1γ1) (Homo sapiens, UniProt Q13131+Q9Y478); experiment: In vitro AMPK activation assay (AMPKSAMSF), complex 1; type: biochemical; conditions: recombinant human AMPK complex 1 (α1β1γ1); for % Maximum AMP Activation of human AMPK Complex 1: 10-point titration expressed as % maximum AMP activation; for EC50: inflection point reflecting 50% of the maximum activation
T1 construct: made in house; host or cells: Spodoptera frugiperda Sf21 cells, baculovirus, triple infection (one virus per subunit)
T1 sequence (Q13131 whole entry): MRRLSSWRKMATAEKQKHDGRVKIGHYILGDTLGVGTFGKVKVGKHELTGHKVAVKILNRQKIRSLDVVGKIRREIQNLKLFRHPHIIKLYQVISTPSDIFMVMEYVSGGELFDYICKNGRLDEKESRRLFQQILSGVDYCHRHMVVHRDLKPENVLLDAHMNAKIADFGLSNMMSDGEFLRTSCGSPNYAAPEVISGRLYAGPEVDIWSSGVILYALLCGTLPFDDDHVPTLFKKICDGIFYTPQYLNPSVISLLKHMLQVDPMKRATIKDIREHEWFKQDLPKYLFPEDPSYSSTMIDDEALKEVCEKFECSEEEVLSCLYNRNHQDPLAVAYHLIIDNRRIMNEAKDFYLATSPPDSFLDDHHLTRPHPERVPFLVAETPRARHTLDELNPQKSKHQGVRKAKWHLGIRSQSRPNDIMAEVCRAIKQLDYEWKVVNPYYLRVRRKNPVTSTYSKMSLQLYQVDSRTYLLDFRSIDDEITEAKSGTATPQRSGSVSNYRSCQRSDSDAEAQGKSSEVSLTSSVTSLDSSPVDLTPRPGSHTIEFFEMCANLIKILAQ
T1 sequence (Q9Y478 whole entry): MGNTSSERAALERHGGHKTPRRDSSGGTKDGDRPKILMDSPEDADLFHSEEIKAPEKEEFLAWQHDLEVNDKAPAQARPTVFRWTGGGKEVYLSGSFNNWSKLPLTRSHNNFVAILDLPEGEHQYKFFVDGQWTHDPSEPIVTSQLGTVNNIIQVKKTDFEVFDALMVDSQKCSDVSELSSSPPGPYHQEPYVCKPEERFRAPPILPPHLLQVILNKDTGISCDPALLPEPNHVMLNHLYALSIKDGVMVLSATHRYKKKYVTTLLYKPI
T1 sequence (P54619 whole entry partner): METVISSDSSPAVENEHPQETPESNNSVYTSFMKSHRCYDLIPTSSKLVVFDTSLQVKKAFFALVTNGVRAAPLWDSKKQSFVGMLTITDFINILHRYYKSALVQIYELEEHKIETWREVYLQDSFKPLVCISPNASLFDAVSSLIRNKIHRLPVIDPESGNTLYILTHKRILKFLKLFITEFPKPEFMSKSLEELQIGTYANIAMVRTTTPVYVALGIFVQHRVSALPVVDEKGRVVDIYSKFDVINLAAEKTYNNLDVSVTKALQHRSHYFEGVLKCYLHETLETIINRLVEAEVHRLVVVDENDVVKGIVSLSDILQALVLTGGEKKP
Experimental: (§1) The recombinant human AMPK complex 1 (containing α1β1γ1) or AMPK complex 7 (containing α2β1γ1) was obtained from baculovirus expression system. Recombinant viruses were generated by cotransfection of AMPK/pBacPak9 clones with Baculogold baculovirus DNA (Pharmingen) in spodoptera frugiperda 21 cells according to the manufacturer's instructions. Each round of virus amplification was performed for 5 days in Grace's medium containing 10% serum. Virus that had been subjected to three rounds of amplification was used for all protein production procedures. To express the AMPK complex, sf21 cells were adapted to serum free medium (SF900 II, Invitrogen) by sequential dilution from serum containing stocks into SF900II medium and maintained in shaker flasks at 90 rpm at 27° C. The recombinant AMPK enzyme complex was produced by triple infection, one recombinant virus for each of the subunits, in sf21 cells under serum free conditions. Cells were infected in log phase, 1×10^6 cells/ml, at a multiplicity of infection of ˜5. Cells were harvested by centrifugation at 10,000×g for 15 minutes after 72 hours of infection with viruses. The insect cell pellet from 2 liters of culture was resuspended in 50 ml lysis buffer (20 mM Tris-HCl, 50 mM NaCl, 50 mM NaF, 30 mM Na PPi, 0.25 M sucrose, 10 mM ZnCl2, 2 mM DTT, 0.4 mg/ml digitonin) and subjected to two cycles of freeze-thaw lysis in a dry-ice ethanol bath. Insoluble material was removed by centrifugation at 10,000×g and the supernatant was fractionated with use of polyethylene glycol (PEG). The protein fraction precipitating between 2.5 and 6% PEG was used for further purification using a Blue-Sepharose step (Zhou et al, J. Clin. Invest. 108, 1167-1174, 2001).
(§2) The in vitro AMPK activation assay is performed in a volume of 30 μl in a 384-well plate. Enzyme reactions were assembled in the microtiter plate by adding 15 μl of 2× enzyme in assay buffer (20 mM HEPES, pH 7.3, 5 mM MgCl2, 3 mM DTT, 0.01% Brij 35 and CamK Kinase, to activate AMPK) to wells which contained either DMSO or compound. The reaction was initiated with the addition of 15 μl 2× substrate mixture containing 200 μM ATP, and 3.0 μM fluorescently labeled SAMS (5-FAM-HMRSAMSGLHLVKRR-COOH) in assay buffer. After 45-minute incubation at 25° C., the reaction was stopped by the addition of 70 μl stop buffer (100 mM HEPES, pH 7.3, 40 mM EDTA, 0.015% Brij 35). Phosphorylated 5-FAM SAMS product is assessed using a Caliper EZ Reader LabChip microfluidics reader. Product conversion is determined by calculating the peak heights of the substrate and product and reporting the product/(product+substrate) peak ratio. The 10-point titration data were expressed as % maximum AMP activation. The results were plotted using 4 parameter fit and the inflection point reflecting 50% of the maximum activation was reported as the EC50.

[2] = biological target: T2, recombinant human AMPK complex 7 (containing α2β1γ1) (Homo sapiens, UniProt P54646+Q9Y478); experiment: In vitro AMPK activation assay (AMPKSAMSF), complex 7; type: biochemical; conditions: recombinant human AMPK complex 7 (α2β1γ1); for Emax: 10-point titration expressed as % maximum AMP activation; for EC50: inflection point reflecting 50% of the maximum activation
T2 construct: made in house; host or cells: Spodoptera frugiperda Sf21 cells, baculovirus, triple infection (one virus per subunit)
T2 sequence (P54646 whole entry): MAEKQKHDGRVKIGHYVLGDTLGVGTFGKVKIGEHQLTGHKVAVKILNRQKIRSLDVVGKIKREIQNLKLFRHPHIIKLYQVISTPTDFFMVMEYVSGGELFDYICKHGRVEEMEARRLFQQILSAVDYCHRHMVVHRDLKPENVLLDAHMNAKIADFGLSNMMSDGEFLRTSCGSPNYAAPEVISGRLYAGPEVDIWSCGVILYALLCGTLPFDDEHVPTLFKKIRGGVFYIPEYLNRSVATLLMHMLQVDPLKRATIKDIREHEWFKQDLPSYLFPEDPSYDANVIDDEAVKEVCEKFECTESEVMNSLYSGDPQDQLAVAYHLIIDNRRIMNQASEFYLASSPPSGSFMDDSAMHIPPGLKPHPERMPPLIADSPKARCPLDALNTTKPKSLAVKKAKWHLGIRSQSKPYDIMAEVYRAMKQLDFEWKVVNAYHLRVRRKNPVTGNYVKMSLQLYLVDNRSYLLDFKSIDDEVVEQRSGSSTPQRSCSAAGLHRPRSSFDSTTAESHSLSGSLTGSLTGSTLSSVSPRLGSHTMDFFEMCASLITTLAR
T2 sequence (Q9Y478 whole entry): as the sequence (Q9Y478 whole entry) above
T2 sequence (P54619 whole entry partner): as the sequence (P54619 whole entry partner) above
Experimental: as §1, §2

Compound | Emax [2] | EC50 [2] | blood glucose reduction (ob/ob and db/db mice) | % Maximum AMP Activation of human AMPK Complex 1 [1] | EC50 [1]
NC(=O)c1ncn([C@@H]2O[C@H](CO)[C@@H](O)[C@H]2O)c1N [AICAR] |  |  | 35% |  | 
O[C@@H]1CO[C@H]2[C@@H]1OC[C@H]2Oc1nc2c(F)c(-c3ccc(-c4ccccc4)cc3)c(F)cc2[nH]1 [Example 1, (3R,3aR,6R,6aR)-6-((5-([1,1′-biphenyl]-4-yl)-4,6-difluoro-1H-benzo[d]imidazol-2-yl)oxy)hexahydrofuro[3,2-b]furan-3-ol] |  |  |  | 636% | 51 nM
CS(=O)(=O)c1ccc(-c2ccc(-c3cc4nc(O[C@@H]5CO[C@H]6[C@@H]5OC[C@H]6O)[nH]c4cc3Cl)cc2)cc1 [Example 6] |  |  |  | 367% | 14 nM
O[C@@H]1CO[C@H]2[C@@H]1OC[C@H]2Oc1nc2cc(-c3ccc(-c4ccccc4)cc3)c(Cl)cc2[nH]1 [Example 8] |  |  |  | 368% | 32 nM
CC(C)(O)c1ccc(-c2ccc(-c3c(F)cc4[nH]c(O[C@@H]5CO[C@H]6[C@@H]5OC[C@H]6O)nc4c3F)cc2)cc1 [Example 15] |  |  |  | 416% | 18 nM
OCc1ccc(-c2ccc(-c3c(F)cc4[nH]c(O[C@H]5COC6C5OC[C@@H]6O)nc4c3F)cc2)cc1 (stereo partly drawn) [Example 18, (3S,6S)-6-((4,6-difluoro-5-(4′-(hydroxymethyl)-[1,1′-biphenyl]-4-yl)-1H-benzo[d]imidazol-2-yl)oxy)hexahydrofuro[3,2-b]furan-3-ol] |  |  |  | 314% | 6 nM
O=C(c1ccc(-c2ccc(-c3c(F)cc4[nH]c(O[C@H]5COC6C5OC[C@@H]6O)nc4c3F)cc2)cc1)N1CC[C@@H](O)C1 (stereo partly drawn) [Example 19, (4′-(4,6-difluoro-2-(((3S,6S)-6-hydroxyhexahydrofuro[3,2-b]furan-3-yl)oxy)-1H-benzo[d]imidazol-5-yl)-[1,1′-biphenyl]-4-yl)((R)-3-hydroxypyrrolidin-1-yl)methanone] |  |  |  | 232% | 35 nM
O=C(O)C1CC1c1ccc(-c2ccc(-c3c(F)cc4[nH]c(O[C@@H]5CO[C@H]6[C@@H]5OC[C@H]6O)nc4c3F)cc2)cc1 (stereo partly drawn) [Example 26] | 350% | 5 nM |  |  | 
CC(CO)(CO)c1ccc(-c2ccc(-c3c(F)cc4[nH]c(O[C@@H]5CO[C@H]6[C@@H]5OC[C@H]6O)nc4c3F)cc2)cc1 [Example 33] | 316% | 5 nM |  |  | 
O[C@@H]1CO[C@H]2[C@@H]1OC[C@H]2Oc1nc2c(F)c(-c3ccc(-c4ccc(C5CNCCO5)cc4)cc3)c(F)cc2[nH]1 (stereo partly drawn) [Example 34] | 263% | 5 nM |  |  | 
O=C1NCCC1c1ccc(-c2ccc(-c3c(F)cc4[nH]c(O[C@@H]5CO[C@H]6[C@@H]5OC[C@H]6O)nc4c3F)cc2)cc1 (stereo partly drawn) [Example 40] | 364% | 5 nM |  |  | 
Oc1ccnc(-c2ccc(-c3ccc(-c4c(F)cc5[nH]c(O[C@@H]6CO[C@H]7[C@@H]6OC[C@H]7O)nc5c4F)cc3)cc2)n1 [Example 41] | 380% | 3 nM |  |  | 
O[C@@H]1CO[C@H]2[C@@H]1OC[C@H]2Oc1nc2c(F)c(-c3ccc(-c4ccc(-n5ccnn5)cc4)cc3)c(F)cc2[nH]1 [Example 43] | 341% | 3 nM |  |  | 

Further lines, with some results ahead:

Emax [2] | EC50 [2] | Compound | blood glucose reduction (ob/ob and db/db mice) | % Maximum AMP Activation of human AMPK Complex 1 [1] | EC50 [1]
364% | 2 nM | CNC(=O)c1ccc(-c2ccc(-c3c(F)cc4[nH]c(O[C@@H]5CO[C@H]6[C@@H]5OC[C@H]6O)nc4c3F)cc2)cc1 [Example 46] |  |  | 
348% | 4 nM | N=c1nc(N)[nH]n1-c1ccc(-c2ccc(-c3c(F)cc4[nH]c(O[C@@H]5CO[C@H]6[C@@H]5OC[C@H]6O)nc4c3F)cc2)cc1 [Example 47] |  |  | 
356% | 8 nM | O=C(O)C1CC1c1ccc(-c2ccc(-c3cc4nc(O[C@@H]5CO[C@H]6[C@@H]5OC[C@H]6O)[nH]c4cc3Cl)cc2)cc1 (stereo partly drawn) [Example 57] |  |  | 
324% | 4 nM | O[C@@H]1CO[C@H]2[C@@H]1OC[C@H]2Oc1nc2cc(-c3ccc(-c4ccc(C5CNCCO5)cc4)cc3)c(Cl)cc2[nH]1 (stereo partly drawn) [Example 67] |  |  | 
344% | 3 nM | Oc1ccnc(-c2ccc(-c3ccc(-c4cc5nc(O[C@@H]6CO[C@H]7[C@@H]6OC[C@H]7O)[nH]c5cc4Cl)cc3)cc2)n1 [Example 68] |  |  | 
359% | 2 nM | O=c1ncn(-c2ccc(-c3ccc(-c4cc5nc(O[C@@H]6CO[C@H]7[C@@H]6OC[C@H]7O)[nH]c5cc4Cl)cc3)cc2)[nH]1 [Example 69] |  |  | 
352% | 5 nM | CC(CO)(CO)c1ccc(-c2ccc(-c3cc4nc(O[C@@H]5CO[C@H]6[C@@H]5OC[C@H]6O)[nH]c4cc3Cl)cc2)cc1 [Example 71] |  |  | 
384% | 7 nM | O[C@@H]1CO[C@H]2[C@@H]1OC[C@H]2Oc1nc2cc(-c3ccc(-c4ccc(-n5ccnn5)cc4)cc3)c(Cl)cc2[nH]1 [Example 73] |  |  | 
369% | 16 nM | O[C@@H]1CO[C@H]2[C@@H]1OC[C@H]2Oc1nc2cc(-c3ccc(-c4ccc(-n5cccn5)cc4)cc3)c(Cl)cc2[nH]1 [Example 74] |  |  | 
386% | 5 nM | CNC(=O)c1ccc(-c2ccc(-c3cc4nc(O[C@@H]5CO[C@H]6[C@@H]5OC[C@H]6O)[nH]c4cc3Cl)cc2)cc1 [Example 76] |  |  | 
368% | 8 nM | N=c1nc(N)[nH]n1-c1ccc(-c2ccc(-c3cc4nc(O[C@@H]5CO[C@H]6[C@@H]5OC[C@H]6O)[nH]c4cc3Cl)cc2)cc1 [Example 77] |  |  | 
381% | 9 nM | O=S(=O)(c1ccc(-c2ccc(-c3cc4nc(O[C@@H]5CO[C@H]6[C@@H]5OC[C@H]6O)[nH]c4cc3Cl)cc2)cc1)C1CCNCC1 [Example 79] |  |  | 
365% | 5 nM | O=C1NCCC1c1ccc(-c2ccc(-c3cc4nc(O[C@@H]5CO[C@H]6[C@@H]5OC[C@H]6O)[nH]c4cc3Cl)cc2)cc1 (stereo partly drawn) [Example 83] |  |  | 

Source: patent US9556193B2, “Benzimidazole hexahydrofuro[3,2-b]furan derivatives” (Merck Sharp & Dohme Corp., priority 2012, dated 2017)
